Results from ChEMBL document CHEMBL1136571, “Design, synthesis and structure-activity relationships of benzoxazinone-based factor Xa inhibitors” (Bioorg Med Chem Lett, 2003).
pIC50: −log10 of the molar value.

How the values were obtained:
Coagulation factor X = Coagulation factor X (Homo sapiens, UniProt P00742); experiment: Inhibitory concentration to factor Xa
Prothrombin [1] = target: T1, Prothrombin (Homo sapiens, UniProt P00734)
Anionic trypsin-2 = target: T2, Anionic trypsin-2 (Rattus norvegicus, UniProt P00763); experiment: Inhibitory concentration against trypsin
T2 sequence (P00763 whole entry): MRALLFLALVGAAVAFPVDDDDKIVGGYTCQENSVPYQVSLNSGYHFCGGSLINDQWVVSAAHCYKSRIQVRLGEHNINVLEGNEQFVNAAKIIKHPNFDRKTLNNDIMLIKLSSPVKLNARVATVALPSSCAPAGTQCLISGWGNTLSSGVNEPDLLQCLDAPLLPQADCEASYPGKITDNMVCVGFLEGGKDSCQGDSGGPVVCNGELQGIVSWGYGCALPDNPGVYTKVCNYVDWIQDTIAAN

[2] = Bioavailability in rat at an oral dose of 2 mg/kg; assay type: ADME, organism-based; conditions: in vivo
Oryctolagus cuniculus [3] = experiment: Plasma concentration at the dose of 100 ug/kg in rabbit; assay type: functional, organism-based
Oryctolagus cuniculus [4] = experiment: Percent inhibition of thrombosis at the dose of 25 ug/kg in rabbit deep vein thrombosis model; assay type: functional; conditions: at 25 µg/kg
Oryctolagus cuniculus [5] = experiment: Percent inhibition of thrombosis at the dose of 100 ug/kg in rabbit deep vein thrombosis model; assay type: functional
[6] = Half-life period in rats following intravenous administration at 2 mg/kg; assay type: ADME, organism-based; design: dose 2 mg/kg, route intravenous; conditions: rat, in vivo
Oryctolagus cuniculus [7] = experiment: Percent inhibition of thrombosis at the dose of 50 ug/kg in rabbit deep vein thrombosis model; assay type: functional
[8] = Half-life period in rabbits following intravenous administration at 2 mg/kg; assay type: ADME, organism-based, Oryctolagus cuniculus; design: dose 2 mg/kg, route intravenous; conditions: rabbit, in vivo
Prothrombin [9] = target: T1, Prothrombin; experiment: Inhibitory concentration against factor IIa

Coagulation factor X, sequence (P00742 41-179 limits assumed): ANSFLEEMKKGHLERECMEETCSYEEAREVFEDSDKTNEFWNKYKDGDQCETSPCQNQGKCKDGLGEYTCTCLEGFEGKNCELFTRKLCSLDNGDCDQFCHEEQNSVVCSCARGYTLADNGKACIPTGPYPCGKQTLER
Coagulation factor X, sequence (P00742 235-488 limits assumed): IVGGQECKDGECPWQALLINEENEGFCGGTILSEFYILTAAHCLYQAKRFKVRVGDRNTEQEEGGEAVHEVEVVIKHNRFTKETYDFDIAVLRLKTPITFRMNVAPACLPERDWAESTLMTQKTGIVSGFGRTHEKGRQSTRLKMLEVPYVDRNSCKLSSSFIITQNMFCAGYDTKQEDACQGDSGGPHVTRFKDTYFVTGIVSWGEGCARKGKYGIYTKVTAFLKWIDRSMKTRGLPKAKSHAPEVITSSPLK

| pIC50 (Coagulation factor X) | pIC50 (Prothrombin [1]) | pIC50 (Anionic trypsin-2) | SMILES | also measured |
| --- | --- | --- | --- | --- |
| 5.80 |  |  | CC(=N)N1CCN(C(=O)c2ccc(N(Cc3ccc4ccc(C(=N)N)cc4c3)S(C)(=O)=O)cc2)CC1 |  |
| 9.10 | < 5.00 | 7.60 | CC(=N)N1CCC(Oc2ccc(N(Cc3cc4ccc(C(=N)N)cc4n3C)S(C)(=O)=O)cc2)CC1 |  |
| 6.30 |  |  | Cc1cc(CN(c2ccc(-c3ccccc3S(N)(=O)=O)cc2)S(C)(=O)=O)n(-c2cccc(C(=N)N)c2)n1 |  |
|  |  | 7.55 | CC(=N)N1CCC(Oc2ccc3c(c2)OCC(=O)N3Cc2ccc3ccc(C(=N)N)cc3c2)CC1 | bioavailability [2]: 4.6%; Concentration (Oryctolagus cuniculus [3]): 200 nM; inhibition in vivo at 0.025 mg/kg (Oryctolagus cuniculus [4]): 7%; inhibition in vivo at 0.1 mg/kg (Oryctolagus cuniculus [5]): 99%; half-life [6]: 30 min; inhibition in vivo at 0.05 mg/kg (Oryctolagus cuniculus [7]): 44%; half-life [8]: 54 min; pIC50 (Prothrombin [9]): < 5.00 |
| < 5.00 | < 5.00 | < 5.00 | CC(=N)N1CCC(Oc2ccc(N(Cc3ccccc3-c3ccc(C(=N)N)cc3)S(C)(=O)=O)cc2)CC1 |  |
|  | < 5.00 | 5.68 | CC(=N)N1CCC(Oc2ccc(N(Cc3cc(C)n(-c4cccc(C(=N)N)c4)n3)S(C)(=O)=O)cc2)CC1 |  |
|  | < 5.00 | 3.60 | CC(=N)N1CCC(Oc2ccc3c(c2)OCC(=O)N3Cc2cc(-c3cccc(C(=N)N)c3)no2)CC1 |  |
|  | < 5.00 | 7.68 | CC(=N)N1CCC(Oc2ccc(N(Cc3cc4cc(C(=N)N)ccc4s3)S(C)(=O)=O)cc2)CC1 |  |
|  |  | 7.20 | CC(=N)N1CCC(Oc2ccc(N(Cc3ccc4ccc(C(=N)N)cc4c3)S(=O)(=O)CC(=O)O)cc2)CC1 [YM-60828] |  |
| 8.15 |  | 6.53 | CCOC(=O)CS(=O)(=O)N(Cc1cccc(-c2cccc(C(=N)N)c2)c1)c1ccc(OC2CCN(C(C)=N)CC2)cc1 |  |
| 7.85 | < 5.00 | < 5.00 | CC(=N)N1CCC(Oc2ccc(N(Cc3cc(-c4cccc(C(=N)N)c4)no3)S(C)(=O)=O)cc2)CC1 |  |
| 8.22 | < 5.00 | 7.03 | CC(=N)N1CCC(Oc2ccc(N(Cc3ccc4ccc(C(=N)N)cc4c3)S(C)(=O)=O)cc2)CC1 |  |
|  |  | 7.07 | CCOC(=O)CS(=O)(=O)N(Cc1cc2cc(C(=N)N)ccc2s1)c1ccc(OC2CCN(C(C)=N)CC2)cc1 |  |
| 5.41 |  |  | Cc1cc(CN(c2ccc(-c3ccccc3S(N)(=O)=O)cc2)S(C)(=O)=O)nn1-c1cccc(C(=N)N)c1 |  |
|  | < 5.00 | 6.84 | CC(=N)N1CCC(Oc2ccc3c(c2)OCC(=O)N3Cc2cccc(-c3cccc(C(=N)N)c3)c2)CC1 |  |
| 8.22 |  | 7.08 | CCOC(=O)CS(=O)(=O)N(Cc1ccc2ccc(C(=N)N)cc2c1)c1ccc(OC2CCN(C(C)=N)CC2)cc1 |  |
|  |  | 7.12 | CC(=N)N1CCC(Oc2ccc3c(c2)OCC(=O)N3Cc2cc3ccc(C(=N)N)cc3n2C)CC1 |  |
|  | < 5.00 | 6.11 | CC(=N)N1CCC(Oc2ccc(N(Cc3ccc(-c4cccc(C(=N)N)c4)cc3)S(C)(=O)=O)cc2)CC1 |  |
| 7.51 | < 5.00 | 6.78 | CC(=N)N1CCC(Oc2ccc(N(Cc3cc4cc(C(=N)N)ccc4n3C)S(C)(=O)=O)cc2)CC1 |  |
| 6.82 |  |  | CS(=O)(=O)N(Cc1ccc2ccc(C(=N)N)cc2c1)c1ccc(-c2ccccc2S(N)(=O)=O)cc1 |  |
| 5.15 | < 5.00 | < 5.00 | CC(=N)N1CCC(Oc2ccc(N(Cc3ccccc3-c3cccc(C(=N)N)c3)S(C)(=O)=O)cc2)CC1 |  |
| 8.70 |  | 7.24 | CCn1c(CN2C(=O)COc3cc(OC4CCN(C(C)=N)CC4)ccc32)cc2ccc(C(=N)N)cc21 |  |
|  | < 5.00 | 6.44 | CC(=N)N1CCC(Oc2ccc(N(Cc3cccc(-c4cccc(C(=N)N)c4)c3)S(C)(=O)=O)cc2)CC1 |  |
|  | < 5.00 | < 5.00 | CC(=N)N1CCC(Oc2ccc(N(Cc3cc(C)nn3-c3cccc(C(=N)N)c3)S(C)(=O)=O)cc2)CC1 |  |
| 8.52 |  | 6.57 | CC(=N)N1CCC(Oc2ccc(N(Cc3cccc(-c4cccc(C(=N)N)c4)c3)S(=O)(=O)CC(=O)O)cc2)CC1 |  |
| 8.52 |  | 7.20 | CC(=N)N1CCC(Oc2ccc(N(Cc3cc4cc(C(=N)N)ccc4s3)S(=O)(=O)CC(=O)O)cc2)CC1 |  |
| 6.72 |  |  | CS(=O)(=O)N(Cc1cccc(-c2cccc(C(=N)N)c2)c1)c1ccc(-c2ccccc2S(N)(=O)=O)cc1 |  |
